From PubChem BioAssay (NCI)
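The compound was tested at five concentrations on cells cultured in 96-well plates, with a 48-hour exposure period. GI50 is the concentration that inhibits growth by half. At the TGI there is no net growth.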 Where a SMILES comes first, the peptide text is derived from it. The star is where a group is joined. Cbz = O=C(OCc1ccccc1)*; OBn = c1ccc(CO*)cc1

Key:
Assay in all cases: growth of human tumour cells (NCI), 48 h
SNB-19 CNS = tested on: SNB-19 CNS
HOP-92 NSCLC = tested on: HOP-92 NSCLC
A498 renal = tested on: A498 renal
RPMI-8226 leukemia = tested on: RPMI-8226 leukemia
HCT-116 colon = tested on: HCT-116 colon
BT-549 breast = tested on: BT-549 breast
MALME-3M melanoma = tested on: MALME-3M melanoma
NCI-H226 lung = tested on: NCI-H226 lung
SF-539 CNS = tested on: SF-539 CNS
EKVX NSCLC = tested on: EKVX NSCLC
OVCAR-8 ovarian = tested on: OVCAR-8 ovarian
COLO 205 colon = tested on: COLO 205 colon
MOLT-4 leukemia = tested on: MOLT-4 leukemia
M14 melanoma = tested on: M14 melanoma
DU-145 prostate = tested on: DU-145 prostate
T-47D breast = tested on: T-47D breast
UACC-62 melanoma = tested on: UACC-62 melanoma
SK-MEL-5 melanoma = tested on: SK-MEL-5 melanoma
A549 NSCLC = tested on: A549 NSCLC
SW-620 colon = tested on: SW-620 colon
CAKI-1 renal = tested on: CAKI-1 renal
OVCAR-3 ovarian = tested on: OVCAR-3 ovarian
SK-MEL-28 melanoma = tested on: SK-MEL-28 melanoma
MCF7 breast = tested on: MCF7 breast
NCI-H460 lung = tested on: NCI-H460 lung
SN12C renal = tested on: SN12C renal
NCI-H522 lung = tested on: NCI-H522 lung
UO-31 renal = tested on: UO-31 renal
ACHN renal = tested on: ACHN renal
SF-268 CNS = tested on: SF-268 CNS
IGROV1 ovarian = tested on: IGROV1 ovarian
PC-3 prostate = tested on: PC-3 prostate
MDA-MB-231 breast = tested on: MDA-MB-231 breast
K-562 leukemia = tested on: K-562 leukemia
KM12 colon = tested on: KM12 colon
SK-MEL-2 melanoma = tested on: SK-MEL-2 melanoma
HCC-2998 colon = tested on: HCC-2998 colon
OVCAR-5 ovarian = tested on: OVCAR-5 ovarian
HOP-62 NSCLC = tested on: HOP-62 NSCLC
MDA-N = tested on: MDA-N
NCI-H23 lung = tested on: NCI-H23 lung
MDA-MB-435 = tested on: MDA-MB-435
SNB-75 CNS = tested on: SNB-75 CNS
RXF 393 renal = tested on: RXF 393 renal
UACC-257 melanoma = tested on: UACC-257 melanoma
SF-295 CNS = tested on: SF-295 CNS
SK-OV-3 ovarian = tested on: SK-OV-3 ovarian
OVCAR-4 ovarian = tested on: OVCAR-4 ovarian
NCI/ADR-RES ovarian = tested on: NCI/ADR-RES ovarian
TK-10 renal = tested on: TK-10 renal
786-0 renal = tested on: 786-0 renal
HS 578T breast = tested on: HS 578T breast
LOX IMVI melanoma = tested on: LOX IMVI melanoma
U251 CNS = tested on: U251 CNS
HCT-15 colon = tested on: HCT-15 colon
HT29 colon = tested on: HT29 colon
HL-60(TB) leukemia = tested on: HL-60(TB) leukemia
CCRF-CEM leukemia = tested on: CCRF-CEM leukemia
SR leukemia = tested on: SR leukemia

For Cc1ccc(SC2=CC(=O)c3nc4ccccc4c4ccnc2c34)cc1, the GI50 (SNB-19 CNS) was greater than 71.2 µM, the TGI (SNB-19 CNS) was greater than 100 µM and the GI50 (HOP-92 NSCLC) was 20 µM. For the same compound, the TGI (HOP-92 NSCLC) was 38.2 µM, the GI50 (A498 renal) was greater than 100 µM and the TGI (A498 renal) was greater than 100 µM. It also gave a GI50 (RPMI-8226 leukemia) of 30.1 µM, a TGI (RPMI-8226 leukemia) greater than 100 µM and a GI50 (HCT-116 colon) of 22.7 µM. The TGI (HCT-116 colon) was greater than 56.8 µM, the GI50 (BT-549 breast) was greater than 62.9 µM and the TGI (BT-549 breast) was greater than 100 µM. For the same compound, the GI50 (MALME-3M melanoma) was 46.7 µM, the TGI (MALME-3M melanoma) was greater than 69.5 µM and the GI50 (NCI-H226 lung) was greater than 61.9 µM. It also gave a TGI (NCI-H226 lung) greater than 100 µM, a GI50 (SF-539 CNS) of 33.9 µM and a TGI (SF-539 CNS) of 83 µM. The GI50 (EKVX NSCLC) was 35 µM, the TGI (EKVX NSCLC) was greater than 100 µM and the GI50 (OVCAR-8 ovarian) was 18 µM. It also gave a TGI (OVCAR-8 ovarian) of 41.2 µM, a GI50 (COLO 205 colon) of 39.4 µM and a TGI (COLO 205 colon) greater than 85.6 µM. For the same compound, the GI50 (MOLT-4 leukemia) was 42.8 µM, the TGI (MOLT-4 leukemia) was greater than 100 µM and the GI50 (M14 melanoma) was 51.9 µM. For the same compound, the TGI (M14 melanoma) was greater than 100 µM, the GI50 (DU-145 prostate) was 43 µM and the TGI (DU-145 prostate) was greater than 67.4 µM. The GI50 (T-47D breast) was 24.3 µM, the TGI (T-47D breast) was 47.2 µM and the GI50 (UACC-62 melanoma) was 43.3 µM. For the same compound, the TGI (UACC-62 melanoma) was greater than 100 µM, the GI50 (SK-MEL-5 melanoma) was 29.1 µM and the TGI (SK-MEL-5 melanoma) was greater than 66.8 µM. It also gave a GI50 (A549 NSCLC) greater than 79.8 µM, a TGI (A549 NSCLC) greater than 100 µM and a GI50 (SW-620 colon) of 23.1 µM. For the same compound, the TGI (SW-620 colon) was 47.9 µM, the GI50 (CAKI-1 renal) was 25.5 µM and the TGI (CAKI-1 renal) was 63.8 µM. For the same compound, the GI50 (OVCAR-3 ovarian) was 23.2 µM, the TGI (OVCAR-3 ovarian) was greater than 54.7 µM and the GI50 (SK-MEL-28 melanoma) was greater than 100 µM. For the same compound, the TGI (SK-MEL-28 melanoma) was greater than 100 µM, the GI50 (MCF7 breast) was 26.8 µM and the TGI (MCF7 breast) was greater than 68.6 µM. For the same compound, the GI50 (NCI-H460 lung) was 61.4 µM, the TGI (NCI-H460 lung) was greater than 100 µM and the GI50 (SN12C renal) was 66.6 µM. It also gave a TGI (SN12C renal) greater than 100 µM, a GI50 (NCI-H522 lung) of 16.3 µM and a TGI (NCI-H522 lung) of 38.4 µM. It also gave a GI50 (UO-31 renal) of 15.5 µM, a TGI (UO-31 renal) of 29.7 µM and a GI50 (ACHN renal) of 31 µM. For the same compound, the TGI (ACHN renal) was greater than 100 µM, the GI50 (SF-268 CNS) was 29.7 µM and the TGI (SF-268 CNS) was greater than 70.7 µM. For the same compound, the GI50 (IGROV1 ovarian) was greater than 37.9 µM, the TGI (IGROV1 ovarian) was greater than 58.5 µM and the GI50 (PC-3 prostate) was 22 µM. The TGI (PC-3 prostate) was 71.2 µM, the GI50 (MDA-MB-231 breast) was 23.4 µM and the TGI (MDA-MB-231 breast) was 60 µM. It also gave a GI50 (K-562 leukemia) of 35.5 µM, a TGI (K-562 leukemia) greater than 100 µM and a GI50 (KM12 colon) of 20.9 µM. For the same compound, the TGI (KM12 colon) was 47.5 µM, the GI50 (SK-MEL-2 melanoma) was 21.2 µM and the TGI (SK-MEL-2 melanoma) was 58.2 µM. For the same compound, the GI50 (HCC-2998 colon) was greater than 67.8 µM, the TGI (HCC-2998 colon) was greater than 100 µM and the GI50 (OVCAR-5 ovarian) was greater than 79.9 µM. The TGI (OVCAR-5 ovarian) was greater than 100 µM, the GI50 (HOP-62 NSCLC) was 97.9 µM and the TGI (HOP-62 NSCLC) was greater than 100 µM. It also gave a GI50 (MDA-N) of 28.8 µM, a TGI (MDA-N) greater than 75 µM and a GI50 (NCI-H23 lung) of 24.7 µM. It also gave a TGI (NCI-H23 lung) greater than 73.9 µM, a GI50 (MDA-MB-435) of 16.3 µM and a TGI (MDA-MB-435) of 31.2 µM. The GI50 (SNB-75 CNS) was 39.8 µM, the TGI (SNB-75 CNS) was greater than 100 µM and the GI50 (RXF 393 renal) was 21.9 µM. For the same compound, the TGI (RXF 393 renal) was 50 µM, the GI50 (UACC-257 melanoma) was 24.7 µM and the TGI (UACC-257 melanoma) was 77.7 µM. It also gave a GI50 (SF-295 CNS) greater than 100 µM, a TGI (SF-295 CNS) greater than 100 µM and a GI50 (SK-OV-3 ovarian) greater than 100 µM. The TGI (SK-OV-3 ovarian) was greater than 100 µM, the GI50 (OVCAR-4 ovarian) was 17.4 µM and the TGI (OVCAR-4 ovarian) was 32.6 µM. For the same compound, the GI50 (NCI/ADR-RES ovarian) was 27.9 µM, the TGI (NCI/ADR-RES ovarian) was greater than 95.4 µM and the GI50 (TK-10 renal) was 53.6 µM. It also gave a TGI (TK-10 renal) greater than 100 µM, a GI50 (786-0 renal) of 24.5 µM and a TGI (786-0 renal) greater than 58.1 µM. It also gave a GI50 (HS 578T breast) of 43.8 µM, a TGI (HS 578T breast) greater than 95 µM and a GI50 (LOX IMVI melanoma) of 28.5 µM. For the same compound, the TGI (LOX IMVI melanoma) was greater than 100 µM, the GI50 (U251 CNS) was 30.2 µM and the TGI (U251 CNS) was greater than 100 µM. For the same compound, the GI50 (HCT-15 colon) was 18.4 µM, the TGI (HCT-15 colon) was 40.6 µM and the GI50 (HT29 colon) was 38 µM. It also gave a TGI (HT29 colon) greater than 100 µM.
In the case of COC(=O)C(Cc1ccc(O)cc1)NC(=O)C(CC(=O)OCc1ccccc1)NC(=O)OCc1ccccc1 (configuration not stated) (Cbz-Asp(OBn)-Tyr-OMe; configuration not given here), the TGI (SNB-19 CNS) is reported as 34.1 µM, the TGI (HOP-92 NSCLC) is reported as greater than 100 µM and the TGI (A498 renal) is reported as 62.4 µM. For the same compound, the TGI (RPMI-8226 leukemia) was 49.8 µM, the TGI (HCT-116 colon) was 35.1 µM and the TGI (BT-549 breast) was 37.4 µM. It also gave a TGI (MALME-3M melanoma) greater than 100 µM, a TGI (NCI-H226 lung) of 43.2 µM and a TGI (EKVX NSCLC) of 46.7 µM. For the same compound, the TGI (OVCAR-8 ovarian) was 35.6 µM, the TGI (HL-60(TB) leukemia) was 52.7 µM and the TGI (COLO 205 colon) was 39.4 µM. For the same compound, the TGI (MOLT-4 leukemia) was 61.5 µM, the TGI (M14 melanoma) was 44.4 µM and the TGI (T-47D breast) was 40 µM. It also gave a TGI (SK-MEL-5 melanoma) of 34.1 µM, a TGI (A549 NSCLC) of 37 µM and a TGI (SW-620 colon) of 44.8 µM. It also gave a TGI (SK-MEL-28 melanoma) of 31.3 µM, a TGI (NCI-H460 lung) of 25.9 µM and a TGI (SN12C renal) of 39.3 µM. It also gave a TGI (UO-31 renal) of 49 µM, a TGI (ACHN renal) of 34.8 µM and a TGI (IGROV1 ovarian) of 31.1 µM. It also gave a TGI (PC-3 prostate) of 31.6 µM, a TGI (MDA-MB-231 breast) of 37.5 µM and a TGI (K-562 leukemia) greater than 100 µM. It also gave a TGI (KM12 colon) of 39.5 µM, a TGI (SK-MEL-2 melanoma) of 34.8 µM and a TGI (HCC-2998 colon) of 31.5 µM. For the same compound, the TGI (OVCAR-5 ovarian) was 43.2 µM, the TGI (HOP-62 NSCLC) was 34.6 µM and the TGI (MDA-N) was 35.7 µM. The TGI (NCI-H23 lung) was 66.1 µM, the TGI (CCRF-CEM leukemia) was greater than 100 µM and the TGI (SNB-75 CNS) was 32.6 µM. For the same compound, the TGI (RXF 393 renal) was 29.5 µM, the TGI (UACC-257 melanoma) was 45.5 µM and the TGI (SR leukemia) was 66.3 µM. For the same compound, the TGI (TK-10 renal) was 33.5 µM, the TGI (786-0 renal) was 32.1 µM and the TGI (HS 578T breast) was 69.6 µM. For the same compound, the TGI (U251 CNS) was 35 µM, the TGI (HCT-15 colon) was 33.7 µM and the TGI (HT29 colon) was 32.2 µM.
